Patent US6391304B1, “Peptides derived from the ENV gene of the feline immunodeficiency virus and their applications” (Centre National de la Recherche Scientifique, priority 1997, dated 2002)
Where “and” joins values, the source holds several entries; their conditions need not be identical. Identical values can stand only once. Entries after “also recorded” stand apart in the source; their conditions may differ.

Key:
[1] = test system: immobilized peptide (SU2, SU5, TM2 or TM3-19); assay: ELISA anti-peptide titre during the immunization of cats; type: in vivo; details: individual cats immunized with KLH-coupled peptide; absorbance at 405 nm greater than 0.1
Experimental: (§1) Groups of four cats 4½ months old are immunized subcutaneously with 120 μg of FIV peptide (approximately 250 μg of peptide coupled to KLH (keyhole limpet haemocyanin)), emulsified in complete Freund's adjuvant.
(§2) Four repeat immunizations are administered subcutaneously in an incomplete Freund's adjuvant, generally at intervals of 2-3 weeks, although the interval between the last 2 […] was 7 weeks.
(§3) The production on of antibodies is evaluated before the test by means of an ELISA using an immobilized peptide (SU2, SU5, TM2 or TM3-19) and immunoprecipitation. After the test, the seroconversion is monitored by an ELISA using immobilized envelope peptides and a recombinant FTV capsid protein.
(§4) The ELISA with the immobilized envelope peptides corresponding to the immunogenic domains SU2 and TM2 and with the immobilized recombinant p25 protein (FIV capsid protein) is carried out as described in Avraméas A. et al. (Res. Virol., 1993, 144, 209-218).
(§5) Microplates (Immunolon II, Dynatech) are coated with 0.5 μg/well for the peptides and with 0.1 μg/well for the p25 protein.
(§6) The tests are carried out in duplicate and the results are expressed as average values.
The anti-peptide titres before the test are expressed as the logarithm of the inverse of the last dilution of serum which gives an absorbance (at 405 nm) of greater than 0.1.

[2] = test system: envelope glycoproteins of the Petaluma strain; assay: Immunoprecipitation of envelope glycoproteins by sera (metabolically labelled FL-4 cells); type: in vivo, FIV; details: lysates of chronically infected FL-4 cells; groups of four cats
From the text: The sera collected on the day of the test (at a dilution of 1/40) are used to immunoprecipitate the envelope glycoproteins derived from the metabolically labelled FL-4 cells and feline mononuclear cells (PBM cells) infected with the FIV Wo strain, as described in G. Pancino et al. (Virology, 1995, 206, 796-806).
The recognition of the envelope glycoproteins is estimated by immunoprecipitation of the biosynthetically labelled envelope glycoprotein with sera collected on the day of the test, as summarized in Table I.

FIV Petaluma strain = assay: Neutralization of infection of CrFK cells by sera of immunized cats; type: cell-based; details: CrFK cell line
Experimental: The detection of antibodies neutralizing the infection of the CrFKs with the FIV Petaluma strain is carried out as described previously (Richardson J. et al., J. Gen. Virol., 1996, 77, 759-771).
To evaluate the function of the antibodies, the feline sera directed against the SU2 peptide are tested for their neutralizing value with respect to the infection of CrFK cells with the FIV Petaluma strain.

SU2 envelope peptide = assay: Seroconversion ELISA after the virulence test, SU2 peptide; type: in vivo, cats; details: ELISA, seral dilution 1/25; individual cats
Experimental: (§7) The cats are subjected to a virulence test, one week after the final immunization, by means of an intraperitoneal inoculation of 10 CID50 of FIV Wo isolate, one CID50 corresponding to the dose capable of infecting 50% of the cats.
as §3, §4, §5, §6
(§8) After the test, the seroconversion against the envelope peptides and the p25 protein is evaluated at serum dilutions of 1/25 and 1/100, respectively.
(§9) The absorbance values (at 405 nm) are corrected by subtraction of the absorbance values obtained by binding with an immobilized control peptide.
(§10) The tests are normalized with reference to the binding of a mixture of serum from cats infected with FIV with a peptide representing the immunodominant domain of the FIV transmembrane glycoprotein (TM2) (Avraméas A. et al., Res. Virol., 1993, 144, 209-218).

TM2 envelope peptide = assay: Seroconversion ELISA after the virulence test, TM2 peptide; type: in vivo, cats
Experimental: as §7, §3, §4, §5, §6, §8, §9, §10

[3] = test system: p25 recombinant FIV capsid protein; assay: Seroconversion ELISA after the virulence test, p25; type: in vivo, cats; details: ELISA, seral dilution 1/100; individual cats
Experimental: as §7, §3, §4, §5, §6, §8, §9, §10

CD4+ T lymphocytes = assay: Counting of circulating CD4+ T lymphocytes by flow cytometry; type: in vivo, cats; details: acute infection with FIV Wo, FIG. 2
Experimental: Counting of the CD4^+ T lymphocytes is carried out at regular intervals before the test, on the day of the test and at regular intervals during the acute infection.
The CD4^+ T lymphocytes are counted by flow cytometry, using monoclonal antibodies (Clinisciences).
To evaluate the effect of the immunization on the pathology associated with a primary infection, circulating CD4^+ lymphocytes are counted before and after the test with the FIV Wo strain.

FIV Wo isolate = assay: Plasmatic viral load by competitive RT-PCR after the virulence test; type: in vivo, cats; details: after test with 10 CID50 of Wo isolate, relative to control cats, FIG. 3
Experimental: as §1, §2, §7
The plasma is filtered (0.45 μm) and the RNA not associated with cells is extracted directly from the filtered plasma using the Viral RNA kit (Qiagene) and eluted in 50 μl of water according to the manufacturer's instructions, and the RNA is then divided into aliquots and stored at −80° C.
A conserved region of the FIV gag gene is selected as a target sequence for the reverse transcription of the competitive RNA and the overlapping PCR amplification.
For the synthesis of the cDNA, 2.5 μl of viral RNA are mixed with 2.5 μl containing different numbers of copies of competitive RNA; typically, the various samples of competitive RNA are prepared using 5 semi-logarithmic dilutions, straddling the number of copies estimated in the biological sample.
The RNA is denatured at 65° C. for 5 minutes and immediately placed on ice. The reagents for the reverse transcription (15 μl) are added.
The final reaction mixtures contain 0.3 U/ml of random hexanucleotides (sequences of 6 randomly aligned nucleotides which make it possible theoretically to amplify any RNA fragment) (Pharmcia), 0.5 mM of dNTP, 10 mM of DTT, 1× of commercial buffer (Gibco BRL) and 100 U of Superscript II (Glbco BRL), in a volume of 20 μl.
The reactions are first carried out at 25° C. for 10 minutes to promote the hybridization of the primers, and then at 42° C. for 50 minutes. The reverse transcriptase is inactivated by incubation at 95° C. for 5 minutes.
The highly conserved sequences are selected as primers. The complementary DNA is amplified by overlapping PCR, using:
For the first amplification, the PCR reagents (80 μl) are added as a mixture with 20 μl of cDNA.
The DNA is denatured at 94° C. for 3 minutes, subjected to 28 cycles of amplification (94° C. 30 s/55° C. 30 s/72° C. 30 s) and to an elongation at 72° C. for 7 minutes.
For the overlapping amplification, 2 μl of the product of the first amplification is transferred into 98 μl of reaction mixture containing 200 μM of dNTP, 1.5 mM of MgCl2, 0.5 μM of each internal primer, 1× of commercial buffer (Gibco BRL) and 0.25 U of Taq polymerase (Gibco BRL).
The DNA is denatured at 94° C. for 3 minutes, subjected to 28 cycles of amplification (94° C. 30 s/52° C. 30 s/72° C. 30 s) and to an elongation at 72° C. for 7 minutes.
The amplification products (10 μl ) are subjected to electrophoresis on 2.75% agarose gel.
Digital images of the gels stained with ethidium bromide are obtained using the Appligene Imager and the densitometry analyses are carried out with the Image NIH software. The density of the competitive product is adjusted as a function of the difference between the length of the native sequence and that of the competitive sequence.
The logarithm of the ratio:density or competitive product/density of the native product, is plotted as a function of the logarithm of the number of copies of competitive RNA added to each reaction.
The best adjustment is determined by the least-squares method and the number of copies of native RNA corresponds to the intersection of the axis of the Xs (Piatak M. Jr. et al., Biotechniques, 1993, 14, 70-80).
The cumulative area under the curve (Dawson J., Drug Information J., 1994, 28, 723-732) is calculated from graphs illustrating the ratio: copies of viral RNA/ml of plasma/time, and compared with the Mann-Whitney test.

[4] = ELISA, seral dilution 1/25, individual cats

**Q.** “SU5: peptide of the SU5 domain of the FIV surface envelope glycoprotein, SEQ ID NO: 3, used as immunogen (QVVKQPDYLVVPGEVMEYKPRR)” was tested. Which “Anti-peptide titre, 1st injection” value [1] did it give?
**A.** 5.01 logarithm of the inverse of the last dilution of serum and 5.31 logarithm of the inverse of the last dilution of serum and 4.71 logarithm of the inverse of the last dilution of serum and >5.61 logarithm of the inverse of the last dilution of serum

**Q.** And the “Anti-peptide titre, 2nd injection” value [1]?
**A.** 5.31 logarithm of the inverse of the last dilution of serum (3×) and 5.01 logarithm of the inverse of the last dilution of serum

**Q.** What about the “Anti-peptide titre, Day of the test” value [1] of the same substance?
**A.** 4.71 logarithm of the inverse of the last dilution of serum and 5.01 logarithm of the inverse of the last dilution of serum (3×)

**Q.** What about the “cats whose sera immunoprecipitate the envelope glycoproteins of the Petaluma strain” value [2] of the same substance?
**A.** all the cats

**Q.** What about the “neutralizing antibodies in sera of immunized cats” value (FIV Petaluma strain) of the same substance?
**A.** do not neutralize

**Q.** And the “Binding of the sera to SU2, 3 weeks after the virulence test” value (SU2 envelope peptide)?
**A.** 0 optical density

**Q.** And the “Binding of the sera to SU2, 4 weeks after the virulence test” value (SU2 envelope peptide)?
**A.** 1.9 optical density and 0.5 optical density and 0 optical density (2×)

**Q.** What about the “Binding of the sera to SU2, 5 weeks after the virulence test” value (SU2 envelope peptide) of the same substance?
**A.** 2.4 optical density and 0.7 optical density and 0.1 optical density and 0 optical density

**Q.** And the “Binding of the sera to TM2, 3 weeks after the virulence test” value (TM2 envelope peptide; [4])?
**A.** 2.3 optical density and 0 optical density (2×) and 0.1 optical density

**Q.** What about the “Binding of the sera to TM2, 4 weeks after the virulence test” value (TM2 envelope peptide; [4]) of the same substance?
**A.** 2.9 optical density and 2.8 optical density and 2.4 optical density and 0 optical density

**Q.** And the “Binding of the sera to TM2, 5 weeks after the virulence test” value (TM2 envelope peptide; [4])?
**A.** 3.0 optical density and 3.1 optical density and 2.8 optical density and 0 optical density

**Q.** What about the “response against the TM2 peptide” value (TM2 envelope peptide; at 4 weeks after the test) of the same substance?
**A.** developed a large response

**Q.** What about the “Binding of the sera to p25, 3 weeks after the virulence test” value [3] of the same substance?
**A.** 0.1 optical density and 0 optical density (3×)

**Q.** And the “Binding of the sera to p25, 4 weeks after the virulence test” value [3]?
**A.** 2.7 optical density and 1.0 optical density and 0.2 optical density and 0 optical density

**Q.** What about the “Binding of the sera to p25, 5 weeks after the virulence test” value [3] of the same substance?
**A.** 2.9 optical density and 2.2 optical density and 0.8 optical density and 0 optical density

**Q.** And the “number of CD4+ lymphocytes after the infection” value (CD4+ T lymphocytes)?
**A.** gradual reduction

**Q.** What about the “course of the primary infection (viral RNA in plasma, viral dissemination)” value (FIV Wo isolate) of the same substance?
**A.** the acute infection of 3 cats followed kinetics similar to those of the control cats, while infection in one of the cats appears in a retarded manner; also recorded: do not modify the course of the infection
